From article PMC5999181, “UMP kinase activity is involved in proper chloroplast development in rice” (Photosynthesis Research, 2018)

Molecular target: T1, YL2 (YL2-His) (Oryza sativa, UniProt Q5JJV9)
T1 construct: gene Os01g0965400; full-length cDNA (351 residues including putative 58-residue transit peptide) in pET44a, E. coli BL21, Ni-NTA
T1 sequence (Q5JJV9 1-351): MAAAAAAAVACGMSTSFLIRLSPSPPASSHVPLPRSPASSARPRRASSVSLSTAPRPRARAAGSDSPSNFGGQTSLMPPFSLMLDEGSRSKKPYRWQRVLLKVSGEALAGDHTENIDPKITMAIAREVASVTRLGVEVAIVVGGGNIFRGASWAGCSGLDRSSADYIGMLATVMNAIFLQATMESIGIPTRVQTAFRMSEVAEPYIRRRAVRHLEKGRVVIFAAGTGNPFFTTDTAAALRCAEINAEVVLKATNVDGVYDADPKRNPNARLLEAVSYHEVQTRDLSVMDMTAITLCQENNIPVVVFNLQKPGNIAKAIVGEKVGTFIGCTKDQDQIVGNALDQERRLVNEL
Assay: Kinase-Glo luminescence (residual ATP)
Format: biochemical
Details: 0.2 mM UMP, 10 μM ATP, 10 mM MgCl2, 1 mM DTT, 50 mM Tris-HCl pH 7.5, 30 °C, 0.5 h

Row | Compound | Kinase-Glo luminescence (residual ATP)
1 | Nc1ncnc2c1ncn2[C@@H]1O[C@H](COP(=O)(O)OP(=O)(O)OP(=O)(O)O)[C@@H](O)[C@H]1O [ATP] | decreased levels of RLU, reflecting the amount of residual ATP remaining after the UMP kinase reaction
2 | O=c1ccn([C@@H]2O[C@H](COP(=O)(O)O)[C@@H](O)[C@H]2O)c(=O)[nH]1 [UMP] | confirming that YL2 has prokaryotic UMP kinase activity in vitro
